The test has as its system respiratory function after cigarette smoke exposure. Kind of test: Cigarette smoke exposure, deterioration of guinea pig's breath function (COPD model). In kind it is in vivo, Hartley guinea pig. Conditions: 30 mg/kg a day, oral, Student t-test. How it is done: The main current smoke of a cigarette with a filter tip commercially available (Highlight, nicotine 1.4 mg content, and tar 17 mg content, Japan Tabaco Inc.) was exposed to the nose and the mouth of a Hartley guinea pig (obtained from Japan SLC Co., Ltd.) at the rate of 30 pieces of the cigarettes a day for five days a week during 30 days with a cigarette smoke exposure device for an animal (manufactured by […] Co., Ltd.). (Wright J L, Churg A. Cigarette smoke causes physiologic and morphologic changes of emphysema in the guinea pig Am. Rev. Respir. Dis. 1990 142:1422-8). […] After 16 to 24 hours had passed from the final cigarette smoke exposure, the trachea incision of the guinea pig was conducted under urethane ([…], i.p.) anesthesia, and a cannula was intubated and installed in a respiratory function measuring device system, a maneuver (manufactured by Baxco Co., Ltd.) for small animals. The respiratory function of the guinea pig was measured according to the protocol of the maneuver. In the medium administered control group and the medicine administered group, the amount of a functional residual air, the increase in the total lung capacity, and the decrease in the dynamic lung compliance by the cigarette smoke exposure were compared and the test of the significant difference was conducted. The data will be shown by the average±the standard deviation. […]

Consider one molecule from US8367666B2 (priority 2004, dated 2013).

As for `COC(=O)C(NC(=O)c1cc2c(n(CC=O)c1=O)CCCCCC2)C(C)C` (centres unmarked) [(1), methyl 3-methyl-2-{[2-oxo-1-(2-oxo-ethyl)-1,2,5,6,7,8,9,10-octahydro-cycloocta[b]pyridine-3-carbonyl]-amino}-butyrate], the “increase in the amount of a functional residual air by the cigarette smoke exposure, difference to medium group” value is recorded as “significant difference of P<0.05” and the “increase in the total lung capacity by the cigarette smoke exposure, difference to medium group” value is listed as “significant difference of P<0.05”.
